Measured values: the NIST ThermoML archive (doi:10.1021/je3009599)
± gives the expanded uncertainty stated by the source.

Details: Liquid

CCCC(=O)OCC [ethyl butanoate]
Details | vapor or sublimation pressure [kPa]
348.97 K | 22.5 ± 0.11
351.83 K | 25 ± 0.11
354.39 K | 27.5 ± 0.11
356.76 K | 30.03 ± 0.11
359 K | 32.51 ± 0.12
361.08 K | 35.02 ± 0.12
363.04 K | 37.52 ± 0.12
364.86 K | 40.04 ± 0.12
366.66 K | 42.51 ± 0.13
368.24 K | 45.03 ± 0.13
369.87 K | 47.51 ± 0.13
371.44 K | 50.01 ± 0.13
372.86 K | 52.51 ± 0.13
374.31 K | 55.03 ± 0.14
375.67 K | 57.52 ± 0.14
376.95 K | 60 ± 0.14
379.48 K | 65.03 ± 0.15
380.68 K | 67.53 ± 0.15
381.82 K | 70 ± 0.15
382.96 K | 72.52 ± 0.15
384.07 K | 75.01 ± 0.16
385.13 K | 77.51 ± 0.16
386.19 K | 79.99 ± 0.16
387.22 K | 82.52 ± 0.17
388.21 K | 85.02 ± 0.17
389.17 K | 87.54 ± 0.17
390.12 K | 89.98 ± 0.17
391.06 K | 92.53 ± 0.18
391.95 K | 94.92 ± 0.18
392.83 K | 97.45 ± 0.18
393.71 K | 100.01 ± 0.19
394.13 K | 101.31 ± 0.19

CCCC(C)O (stereo not given) [pentan-2-ol]
Details | vapor or sublimation pressure [kPa]
354.47 K | 22.55 ± 0.11
356.6 K | 25.05 ± 0.11
358.86 K | 27.47 ± 0.11
360.81 K | 30.03 ± 0.11
362.76 K | 32.55 ± 0.12
364.38 K | 35.08 ± 0.12
366 K | 37.56 ± 0.12
367.49 K | 40.03 ± 0.12
369.03 K | 42.51 ± 0.12
370.52 K | 45.07 ± 0.13
371.77 K | 47.54 ± 0.13
373.05 K | 50.02 ± 0.13
374.33 K | 52.58 ± 0.13
375.51 K | 55.03 ± 0.13
376.68 K | 57.48 ± 0.13
377.81 K | 60.03 ± 0.13
378.95 K | 62.45 ± 0.14
379.97 K | 65.05 ± 0.14
381.01 K | 67.58 ± 0.14
381.96 K | 70.03 ± 0.15
382.9 K | 72.56 ± 0.15
383.88 K | 75.05 ± 0.15
384.79 K | 77.59 ± 0.15
385.64 K | 80.03 ± 0.15
386.56 K | 82.58 ± 0.16
387.35 K | 85.01 ± 0.16
388.19 K | 87.55 ± 0.16
389 K | 90.09 ± 0.16
389.76 K | 92.52 ± 0.16
390.55 K | 95.02 ± 0.17
391.31 K | 97.55 ± 0.17
392.07 K | 100.03 ± 0.18
392.26 K | 101.38 ± 0.3
